This passage reports EC50, IC50 and outcome results from PubChem BioAssay AID179 (DTP/NCI, 2004).

By EC50 is commonly meant the concentration that produces a half-maximal response. Usually IC50 stands for the midpoint of a concentration-inhibition curve. Read a high IC50 as weaker potency.

Values joined by “and” are separate entries in the source; they are usually repeats but may differ in a detail not shown here. Identical values can stand only once. Active and inactive are the calls of the source.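 Rule for the calls: active = compounds giving half or more protection of infected cells from virus-caused growth loss, again on retest; inactive = the rest.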 Where a SMILES comes first, the peptide text is derived from it. Bridges are numbered along the chain shown (N, C = ends). Roman numbers before positions name the chains, in order.

The subject of this test is CEM cells HIV-1 protection, formazan growth assay. Nature of the test: NCI AIDS Antiviral Assay. Conditions: for IC50: measured here: growth of uninfected CEM cells. A digest of the protocol: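 Human CEM cells, uninfected and HIV-1-infected, exposed to five drug concentrations; growth measured by soluble formazan assay and scored as percent protection from infection, with protecting compounds retested.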

Consider `NC(CSSCC(N)C(=O)NC(Cc1ccccc1)C(=O)O)C(=O)NC(Cc1ccccc1)C(=O)O` (stereo not drawn) (I: H-Cys-Phe-OH / II: H-Cys-Phe-OH; disulfide I:1-II:1; configuration not given here), for which the EC50 is more than 200 µM and the IC50 was more than 200 µM.

With `O=C(NCCNCCCNC(=O)c1cc(-c2ccccc2)nc2ccccc12)c1cccc(O)c1O`, the EC50 was more than 200 µM and the IC50 was determined as 3.24 µM.

For the compound `FC(F)(F)C1(C(F)(F)F)C2CCC3(CC(F)(F)C(F)(F)S3)C1C2` (configuration not stated), the EC50 is more than 200 µM and the IC50 is more than 200 µM.

As to `CC1=C(C(=O)Nc2ccccc2C)C(c2ccc([N+](=O)[O-])cc2)C(C(=O)Nc2ccccc2C)=C(C)N1`, the EC50 is more than 10.5 µM and the concentration for half-maximal inhibition (IC50) is more than 10.5 µM.

With `CC1OC(OC23C(=O)C[C@](C)(O)CC2(O)C=CC2C3=c3oc(-c4ccc(O)cc4)c4c3=C(C(=O)C(C3CC(OC5CCC(OC6CC(O)C(O)C(C)O6)C(C)O5)C(O)C(C)O3)=C4)C2O)CCC1O` (some centres not stated), the EC50 was more than 19.1 µM and the IC50 was more than 19.1 µM.

Turning to `Cc1ccccc1N(C)S(=O)(=O)c1ccccc1[N+](=O)[O-]`, the EC50 is more than 200 µM and the IC50 worked out at 38.9 µM.

With `COc1c(C(=O)/C(=N/Nc2ccc(C(=O)O)cc2)C(C)=O)c(O)cc2occc12`, the EC50 is more than 200 µM and the IC50 amounted to 110 µM.

Consider `CC12C/C(=C\c3ccccc3)C(=O)C3C1CCCC32`, for which the result was inactive.

With `Nc1sccc1S(=O)(=O)c1ccsc1N`, the EC50 was more than 200 µM and the IC50 came to 87.1 µM.

On to `Cc1noc(C)c1C1=CCCCc2ccccc21`, for which the EC50 was more than 30.2 µM and the half-inhibitory concentration (IC50) is more than 30.2 µM.

With `CC(O)CSP(=S)(Oc1ccccc1)Oc1ccccc1` (configuration not stated), the EC50 is more than 39.8 µM and the 50% inhibitory concentration (IC50) was more than 39.8 µM.

On to `COC(=O)/C=C/c1cc(OC)c(OC)c(OC)c1`, for which the EC50 is more than 251 µM and the IC50 was 170 µM.

On to `COc1cc2c(cc1OC)C1C=NC(C(=O)O)(C2)c2ccccc21` (configuration not stated), for which the outcome was inactive.

Consider `CC[C@@H]1CC2CC3c4[nH]c5ccccc5c4CCN(C2)C31` (some centres not stated), for which the outcome was inactive.

As for `CN1CC(C)(C)C(=O)c2ccccc21`, the EC50 was more than 200 µM and the half-maximal inhibitory concentration (IC50) was more than 200 µM.

For the compound `CC1=[N+]([O-])c2ccccc2C(=O)C1=O`, the outcome was inactive.

In the case of `CCOP(=O)(OCC)C1CC(C)OC1=O` (configuration not stated), the result was inactive.

As to `CCCCC(C)/C=C/C(=O)C1=C(O)/C(=C/C(=O)O)OC1=O` (configuration not stated), the EC50 is 302 µM and the 50% inhibitory concentration (IC50) was 851 µM.

As for `Cn1cc/c(=N\N=c2/ccn(C)c3ccccc23)c2ccccc21`, the EC50 was more than 115 µM and the IC50 was found to be 5.01 µM.

Consider `CC(C)(C)OC(=O)C1C(=O)C(C(=O)OC(C)(C)C)C2(C)C(C(=O)OC(C)(C)C)C(=O)C(C(=O)OC(C)(C)C)C12C` (configuration not stated), for which the EC50 was more than 31.6 µM and the concentration for half-maximal inhibition (IC50) worked out at 11.2 µM.

For `O=c1c2cc([N+](=O)[O-])ccc2n2n1CCCCC2`, the EC50 is more than 200 µM and the IC50 was more than 200 µM.

Turning to `O=C1C=C(Nc2ccc(Cl)cc2C(=O)c2ccccc2)c2ccccc2C1=O`, the EC50 is more than 174 µM and the half-inhibitory concentration (IC50) is more than 174 µM.

As for `COc1c(C)cc(C(=O)c2cc(C)c(OC)c(Br)c2)cc1Br`, the EC50 was more than 100 µM and the IC50 amounted to 95.5 µM.

With `CC1(C)C2CCC1(C)C(NC(=O)COCCOCC(N)=O)C2` (configuration not stated), the EC50 was more than 83.2 µM and the IC50 was found to be 41.7 µM.

Consider `CCOC(=O)Nc1cc2c(c(N)n1)N=C(CN(C)c1ccccc1)CN2`, for which the EC50 was more than 34.7 µM and the IC50 was found to be 0.0741 µM.

As for `CS(=O)(=O)OCCN1CCC2(CC1)SSC1(CCN(CCOS(C)(=O)=O)CC1)S2`, the EC50 is more than 200 µM and the IC50 came to 28.2 µM.

Consider `O=C(CC1(O)C(=O)Nc2c(Cl)cccc21)c1ccccc1` (configuration not stated), for which the EC50 is more than 832 µM and the half-inhibitory concentration (IC50) amounted to 158 µM.

Consider `Cc1c(OCc2cccc3ccccc23)ccc2c(=O)cc(S)oc12`, for which the EC50 was more than 200 µM and the concentration for half-maximal inhibition (IC50) was determined as 93.3 µM.

Consider `C/C(COc1ccccc1)=N\NC(N)=S`, for which the result was inactive.

Turning to `Cc1nc(Nc2ccccc2Cl)sc1C(=O)CC(=O)C(=O)Nc1c(Cl)cccc1Cl`, the EC50 was more than 200 µM and the concentration for half-maximal inhibition (IC50) is 57.5 µM.

Take `O=S(Cc1ccccc1)/C(=C/NC(=S)Nc1ccccc1)c1ccccc1` (configuration not stated): the EC50 was 182 µM and the 50% inhibitory concentration (IC50) was more than 200 µM.

For `NCCCNCCSP(=O)(O)O`, the EC50 is more than 1150 µM and the IC50 is 257 µM.

For the compound `O=C(O)C(=Cc1ccc(Br)cc1)C(=O)O`, the EC50 was more than 912 µM and the half-maximal inhibitory concentration (IC50) was more than 912 µM.

With `O=P1(C(c2ccccc2)c2ccccc2)OC2CC(Cl)CC(C2)O1` (configuration not stated), the EC50 is more than 7.24 µM and the 50% inhibitory concentration (IC50) was more than 7.24 µM.

Consider `CCOC(=O)Cc1nc2sc3c(c2c(=O)[nH]1)CCCC3`, for which the EC50 is more than 324 µM and the IC50 was more than 324 µM.

As to `COc1cc(C2C(C(=O)Nc3ccccc3)=C(C)NC(C)=C2C(=O)Nc2ccccc2)ccc1O`, the outcome was inactive.

For the compound `CCOP(=O)(CCn1cc(C)c(=O)[nH]c1=O)OCC`, the EC50 was more than 871 µM and the IC50 is more than 871 µM.

For `COc1cccc(NC(=S)/C(=C(\[O-])c2ccc([N+](=O)[O-])cc2)[n+]2ccc(C(C)C)cc2)c1`, the EC50 was more than 200 µM and the IC50 is more than 200 µM.

Consider `CN1C(=O)CNC(=O)c2ncn(C3OC(CO)C(O)C3O)c21` (configuration not stated), for which the EC50 is more than 229 µM and the IC50 was more than 229 µM.

On to `O=C(/C=C/c1ccccc1)NC1C=Nc2ccc([N+](=O)[O-])cc2NC1=O` (configuration not stated), for which the EC50 was more than 102 µM and the IC50 is 93.3 µM.

Regarding `CC#CCOC(=O)c1ccccc1OC(C)=O.[C-]#[O+].[C-]#[O+].[C-]#[O+].[C-]#[O+].[C-]#[O+].[C-]#[O+].[Co].[Co]`, the EC50 is more than 200 µM and the IC50 stood at 7.76 µM.

Consider `[N-]=[N+]=Nc1ccc2c(c1)Sc1ccccc1N2CCCCN1CCN(Cc2ccc(C(=O)c3ccccc3)cc2)CC1`, for which the EC50 is more than 100 µM and the IC50 came out at 6.03 µM.

For `CC(C)c1oc(=O)cc2c1C(O)C1OC(=O)C3(C)C(O)C4OC4C2(C)C13` (configuration not stated), the EC50 was more than 36.3 µM and the IC50 is 0.17 µM.

For `CC(=O)c1c(-c2ccc(Cl)cc2)c(C#N)c(=S)n(C2OC(CO)C(O)C(O)C2O)c1-c1ccccc1` (configuration not stated), the EC50 was more than 200 µM; the IC50 is 28.2 µM and 14.1 µM.

In the case of `CC(=O)OCC1OC(n2c(=S)n(-c3ccccc3)c(=O)c3ccccc32)C(OC(C)=O)C(OC(C)=O)C1OC(C)=O` (configuration not stated), the EC50 is more than 32.4 µM and the half-maximal inhibitory concentration (IC50) was more than 32.4 µM.

Turning to `O=C[C@@H](CO)O[C@H](C=O)c1c[nH]c(=O)[nH]c1=O`, the EC50 was more than 1020 µM and the concentration for half-maximal inhibition (IC50) was found to be 107 µM.

For the compound `COc1ccccc1/C=C1/NC(=S)NC1=O`, the EC50 was more than 200 µM and the IC50 was more than 200 µM.

With `COc1c(OC)c(C2(O)C(=O)N(C)c3ccccc32)c2c(c1C1(O)C(=O)N(C)c3ccccc31)OCO2` (configuration not stated), the EC50 is more than 200 µM and the half-maximal inhibitory concentration (IC50) is more than 200 µM.

For `COc1ccc(C2Oc3cc(OC)c(O)c(C)c3[C@H]2C)cc1` (some centres not stated), the EC50 was more than 45.7 µM and the half-inhibitory concentration (IC50) is 30.9 µM.

In the case of `CCOP(=O)(O)Cc1c(Cl)c(Cl)c(CP(=O)(O)OCC)c(Cl)c1Cl`, the EC50 is more than 200 µM and the IC50 turned out to be 132 µM.

For `CCOC(=O)CC1(C)c2nc(NC(C)=O)sc2Cc2sc(NC(C)=O)nc21`, the EC50 is more than 200 µM and the 50% inhibitory concentration (IC50) was found to be 186 µM.

Turning to `COC(=O)C1Cc2c(OC)ccc(OC)c2CC(C(=O)OC)C1=O` (configuration not stated), the EC50 is more than 200 µM and the 50% inhibitory concentration (IC50) came out at 182 µM.

Take `C=CCC1NCCC2=C1C(S(=O)(=O)c1ccc(C)cc1)c1ccccc12` (configuration not stated): the EC50 was more than 200 µM and the half-inhibitory concentration (IC50) turned out to be 10.5 µM.

Consider `Cc1ncc([N+](=O)[O-])n1CCO`, for which the EC50 was more than 200 µM and the concentration for half-maximal inhibition (IC50) was more than 200 µM.

On to `O=C(Nc1ccc(Cl)cc1)Nc1cccc2nsnc12`, for which the EC50 was more than 32.4 µM and the IC50 was found to be 20.4 µM.

On to `CCCCCCCCCCCCC(C(=O)O)C(=O)O`, for which the EC50 was more than 251 µM and the IC50 was more than 251 µM.

As for `O=S(=O)(O)OCC1OC2OC3C(COS(=O)(=O)O)OC(OC4C(COS(=O)(=O)O)OC(OC5C(COS(=O)(=O)O)OC(OC6C(COS(=O)(=O)O)OC(OC7C(COS(=O)(=O)O)OC(OC8C(COS(=O)(=O)O)OC(OC1C(OS(=O)(=O)O)C2OS(=O)(=O)O)C(OS(=O)(=O)O)C8OS(=O)(=O)O)C(OS(=O)(=O)O)C7OS(=O)(=O)O)C(OS(=O)(=O)O)C6OS(=O)(=O)O)C(OS(=O)(=O)O)C5OS(=O)(=O)O)C(OS(=O)(=O)O)C4OS(=O)(=O)O)C(OS(=O)(=O)O)C3OS(=O)(=O)O` (configuration not stated), the EC50 was 21.4 µM and > 50.1 µM; the 50% inhibitory concentration (IC50) was 75.9 µM and > 50.1 µM.

As to `N#COc1ccc(Oc2ccccc2)cc1`, the EC50 is more than 24.5 µM and the IC50 is more than 24.5 µM.

For `N#Cc1c2n(c(=S)n(-c3ccccc3)c1=N)CCCCCCC2`, the EC50 is more than 200 µM and the IC50 is 10.7 µM.

`NC(CSS(=O)(=O)O)=NCCSc1ccc(Cl)cc1`: the EC50 is more than 200 µM and the IC50 was determined as 60.3 µM.

`CCOC(=O)NC(=O)c1cn(CCCOC(=O)CCCCCCCCC(=O)OCCCn2cc(C(=O)NC(=O)OCC)c(=O)[nH]c2=O)c(=O)[nH]c1=O`: the result was inactive.

In the case of `Nc1nn2cc3c(nc2c1N=Nc1ccccc1)CCCC3`, the EC50 is more than 200 µM and the IC50 is 4.47 µM.

`N.N.N.N.[Cl-].[Co+3].[N-]=[N+]=[N-].[N-]=[N+]=[N-]`: the result was inactive.

Turning to `COC(=O)C1OS(=O)(=O)OC1C(=O)OC` (configuration not stated), the EC50 was more than 200 µM and the IC50 is more than 200 µM.

On to `Cc1ccc2[nH]c3c(c(=O)n(C)c(=O)n3C)c2c1`, for which the EC50 is more than 200 µM and the IC50 was more than 200 µM.

As for `COc1ccc(/C(=N/O)c2ccccc2-c2nc3ccccc3c(=O)n2-c2ccc(S(=O)(=O)Nc3nccs3)cc2)cc1C`, the EC50 was more than 50.1 µM and the IC50 was more than 50.1 µM.

`CC(=O)NC(CCSSCCC(NC(C)=O)C(=O)ON1C(=O)CCC1=O)C(=O)ON1C(=O)CCC1=O` (configuration not stated): the EC50 was more than 200 µM and the IC50 was more than 200 µM.

For the compound `C/C(CC(O)(C(F)(F)Cl)C(F)(F)Cl)=N\Nc1ccccc1`, the EC50 is more than 200 µM and the IC50 is 52.5 µM.
